In article PMC9016704, “Dichlorophenylpyridine-Based Molecules Inhibit Furin through an Induced-Fit Mechanism” (ACS Chemical Biology, 2022):
Where two headings read alike, the source gives them in different places. Non-standard residues stand in square brackets, D forms with d. Residues, ends and D or L forms follow the SMILES beside them. *: point of attachment. AMC = Cc1cc(=O)oc2cc(N*)ccc12; pGlu = O=C1CC[C@@H](C(=O)O)N1

Tests used:
furin [1] = molecular target: T1, furin (Homo sapiens, UniProt P09958); assay: Enzyme kinetic assay with fluorogenic substrate pERTKR-AMC; type: biochemical; parameters: made in house
Description: To determine the inhibition mode for compound 1, we performed enzyme kinetic assays with the fluorogenic PC substrate pyr-ERTKR-7-amino-4-methylcoumarin (pERTKR-AMC).
Additionally, internal calibration was performed using the monoisotopic peak of the respective […]
MALDI-TOF data, processed with flexAnalysis or MALDI Pharma Pulse, were exported as a comma delimited (.csv) file. Datasets were further processed with either GraphPad Prism (v9.00; GraphPad Software, La Jolla, CA) or in-house laboratory information management system (LIMS) software. Furin activity was tracked by analyzing the measured intensity for the enzymatic product as well as for the corresponding internal standard. Average control values were calculated and set to 100% activity (high controls) and 0% activity (low controls) while the response values of compound-containing wells were normalized against the controls and expressed as percentage of control (PoC). Determination of compound potencies was obtained by fitting the dose-response data to a four-parameter logistical equation.
Enzyme kinetics. Enzyme kinetic measurements were performed in 100 mM HEPES pH 7.5, 1 mM CaCl2, 0.01% (w/v) BSA, 0.001% (v/v) Tween20 with the fluorogenic substrate pyr-ERTKR-7-amino-4-methylcoumarin (pERTKR-AMC, Bachem) and 0.5 nM furin at 24°C. The reactions (100 µl) were initiated by addition of the substrate in 96-well black half area plates (Corning), pre-incubated for 30 min at 24°C and measured for 40 min in a 96-well plate reader (Tecan Infinite 200) at excitation and emission wavelengths of 380 nm and 460 nm, respectively. The Km value of pERTKR-AMC with furin was determined with 1:2 serial dilution series of the substrate from 100 µM to 0.78 µM. To investigate the inhibition mode of 1 with furin, 1:2 serial inhibitor dilution series were prepared in the concentration range between 100 nM and 0.78 nM and the reaction velocity was determined in presence of 4.4 µM, 8.9 µM and 13.3 µM pERTKR-AMC. Enzyme kinetic data were evaluated with GraphPad Prism. Km was calculated with the prebuild “Michaelis-Menten” model. […]
Target sequence in this assay (P09958 108-574 limits assumed): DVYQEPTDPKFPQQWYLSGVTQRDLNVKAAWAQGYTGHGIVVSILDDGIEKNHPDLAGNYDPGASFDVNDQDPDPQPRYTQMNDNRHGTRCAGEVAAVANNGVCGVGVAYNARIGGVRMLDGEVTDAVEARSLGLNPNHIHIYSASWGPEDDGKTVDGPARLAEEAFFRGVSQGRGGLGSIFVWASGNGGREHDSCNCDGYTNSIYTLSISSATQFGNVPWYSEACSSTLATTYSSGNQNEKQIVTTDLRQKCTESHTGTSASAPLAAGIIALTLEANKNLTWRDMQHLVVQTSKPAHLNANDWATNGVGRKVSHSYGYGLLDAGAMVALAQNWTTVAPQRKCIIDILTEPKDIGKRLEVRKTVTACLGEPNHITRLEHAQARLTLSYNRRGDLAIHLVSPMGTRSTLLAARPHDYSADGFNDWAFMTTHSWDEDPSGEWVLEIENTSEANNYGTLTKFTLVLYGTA

furin [2] = molecular target: T1, furin; assay: Protein thermostability measurement by nanoDSF; type: binding; parameters: made in house; conditions: for Tm #1 / Tm #2 / Tm Mean: furin-inhibitor complex; for Tm #1: replicate #1; for Tm #2: replicate #2; for Tm Mean: ligand-free furin 57.7 ± 0.1; for ΔTm: gain versus ligand-free furin
Text: Interactions of inhibitors with furin increased the structural stability of the protease–inhibitor complexes compared with the ligand-free protease, which was indicated by an increase in the melting temperature (Tm).[23] We investigated the impact of the (3,5-dichlorophenyl)pyridine-based compounds on the structural stability of furin using differential scanning fluorimetry (nanoDSF[24]). […] The gain in Tm correlated well with the measured pIC50 (i.e., −log10(IC50)) values (Figure 2B), as reported for substrate-like inhibitors.[10],[25] […]
Protein thermostability measurement by nanoDSF. The thermostablity of furin-inhibitor complexes was further assessed by nanoDSF.16 In nanoDSF, protein unfolding was monitored by the change of the intrinsic fluorescence of the protein, mainly from tryptophan and tyrosine residues in the protein. 10 ul 0.2 mg mL-1 (3.8 µM) protein solutions (10mM Hepes/NaOH pH 7.5; 100 mM NaCl; 2 mM CaCl2) were loaded into nanoDSF grade standard capillaries (NanoTemper Technologies). The samples were heated up with a ramp rate of 1 °C min-1 over a temperature range of 20-95 °C. The thermal unfolding profiles of the proteins were recorded using the Prometheus NT.48 instrument (NanoTemper Technologies). Measurements were performed in duplicate. Unfolding transition temperatures (Tm) were automatically determined by the instrument software.
Target sequence in this assay (P09958 108-574 limits assumed): as above

[3] = test system: Total TGFβ production in the lung; parameters: method as in earlier work; conditions: cited from earlier work; for Total TGFβ production in the lung reduced by: 10 mg/kg of body weight; for bioavailability: bleomycin-induced lung fibrosis mouse model
furin [4] = test system: furin; parameters: method as in earlier work; conditions: cell-based inhibition assays; cited from earlier work
furin [5] = molecular target: T1, furin; assay: MALDI-TOF-MS-based furin activity assay, TGFβ-derived substrate; type: biochemical; parameters: made in house
Target sequence in this assay (P09958 108-574 limits assumed): as above

furin [6] = test system: furin; parameters: method as in earlier work; conditions: enzyme kinetics measurements; cited from earlier work
furin [7] = molecular target: T1, furin; assay: biochemical
Target sequence in this assay (P09958 108-794): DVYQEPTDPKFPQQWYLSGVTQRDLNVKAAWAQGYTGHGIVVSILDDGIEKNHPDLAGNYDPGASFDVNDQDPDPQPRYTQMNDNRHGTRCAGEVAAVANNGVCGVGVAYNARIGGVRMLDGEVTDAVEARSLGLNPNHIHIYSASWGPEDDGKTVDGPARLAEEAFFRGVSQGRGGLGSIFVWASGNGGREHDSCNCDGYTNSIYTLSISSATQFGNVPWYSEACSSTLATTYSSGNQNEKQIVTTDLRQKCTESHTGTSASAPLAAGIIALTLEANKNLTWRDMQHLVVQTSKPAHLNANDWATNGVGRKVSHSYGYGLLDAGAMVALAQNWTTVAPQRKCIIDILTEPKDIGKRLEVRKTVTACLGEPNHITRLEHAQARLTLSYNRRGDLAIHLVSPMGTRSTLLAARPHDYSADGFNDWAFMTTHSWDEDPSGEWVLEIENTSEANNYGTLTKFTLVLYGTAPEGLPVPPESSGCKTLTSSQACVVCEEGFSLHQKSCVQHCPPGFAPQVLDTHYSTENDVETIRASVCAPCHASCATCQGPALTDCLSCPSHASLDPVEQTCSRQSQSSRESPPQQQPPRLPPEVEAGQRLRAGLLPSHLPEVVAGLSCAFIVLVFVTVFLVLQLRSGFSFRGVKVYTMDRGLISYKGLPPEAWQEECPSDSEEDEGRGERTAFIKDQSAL

furin [8] = molecular target: T1, furin; assay: Surface plasmon resonance binding to immobilized furin; conditions: for koff: read-out: koff Mean ± SD; for kon: read-out: kon Mean ± SD; for residence time: reciprocal of the mean koff, read-out: residence time τ
Description: As the (3,5-dichlorophenyl)pyridine derivatives bind tightly to furin, we used single-cycle kinetic experiments to determine their off-rates.[18] […]
SPR-experiments. 1, 3 and hexa-D-Arginine 14 were dissolved to a 10 mM stock solution in DMSO. This stock solution was initially diluted 100-fold in running buffer (10 mM HEPES pH 7.5, 100 mM NaCl, 2 mM CaCl2; 0.05% Tween; 1% DMSO) to a concentration of 100 µM and 1% DMSO. The stock solution in 1% DMSO was then further diluted in running buffer with […]
Furin was immobilized onto a NTA-chip after pre-loading with Ni2+ using standard procedures.
Immobilization levels of furin were in the range of 6000-6500 RU. Binding studies were performed with a Biacore T200 SPR system at 25°C in 10 mM HEPES pH 7.5, 100 mM NaCl, 2 mM CaCl2; 0.05% (v/v) Tween 20, and 1% (v/v) DMSO. Inhibitor 1 and 3 concentrations were […]
and 500 nM. Binding studies for 1 and 3 were performed in the single-cycle kinetic mode using […]
Target sequence in this assay (P09958 108-794): as above

furin [9] = test system: furin; parameters: method as in PMID 10958789; conditions: read-out: IC50 (literature); cited from earlier work
[10] = TGFβ-derived substrate 2.5 µM, 0.02 nM furin, read-out: IC50 Mean ± SD
[11] = injected intraperitoneally, mice
[12] = TGFβ substrate, replicate #1, read-out: IC50 #1
[13] = TGFβ substrate, replicate #2, read-out: IC50 #2
[14] = TGFβ substrate, replicate #3, read-out: IC50 #3
[15] = 25°C, hexa-D-Arg: multicycle, poor curve fit, read-out: KD Mean ± SD

| Molecule | Tm #1 (furin [2]) | Tm #2 (furin [2]) | Tm Mean (furin [2]) | ΔTm (furin [2]) | bioavailability ([3]; in words) | IC50 (furin [4]) | IC50 (furin [5]; [10]) | IC50 (furin [6]) | Kd (furin [8]; [15]) | Kd (furin [8]; replicate #1, read-out: KD #1) | Kd (furin [8]; replicate #2, read-out: KD #2) | Kd (furin [8]; replicate #3, read-out: KD #3) | other results |
| --- | --- | --- | --- | --- | --- | --- | --- | --- | --- | --- | --- | --- | --- |
| Cc1cc(=O)oc2cc(NC(=O)[C@H](CCCNC(=N)N)NC(=O)[C@H](CCCCN)NC(=O)[C@@H](NC(=O)[C@H](CCCNC(=N)N)NC(=O)[C@@H]3CCC(=O)N3)[C@@H](C)O)ccc12 [pERTKR-AMC, pyr-ERTKR-7-amino-4-methylcoumarin] ([pGlu]RTKR-{AMC}) |  |  |  |  |  |  |  |  |  |  |  |  | Km (furin [1]; Km of substrate pERTKR-AMC with furin): 9.6 µM |
| CC(=O)NCC1CCN(Cc2cc(Oc3cnc(N4CCN(CCC(C)C(=O)O)CC4)nc3)nc(-c3cc(Cl)cc(Cl)c3)c2)CC1 (centres unmarked) [Inhibitor 2] | 69.4 °C | 69.2 °C | 69.3 °C | 11.6 °C | comparably high | 5 nM | 1.3 nM | 0.5 nM |  |  |  |  | Total TGFβ production in the lung reduced by ([3]; oral, mice): 75%; oral availability ([3]; mice, in words): orally available |
| AQHLQSSRHRRALDTNY [TGFβ, peptide substrate surrogate derived from TGFβ] |  |  |  |  |  |  |  |  |  |  |  |  | Km (furin [5]; assay-specific apparent Km of the TGFβ-derived peptide substrate, read-out: Km,app): 1.8 µM |
| CC(=O)NCC1CCN(Cc2cc(Oc3cnc(N4CCN(CCC(=O)O)CC4)nc3)nc(-c3cc(Cl)cc(Cl)c3)c2)CC1 [Inhibitor 3] | 68.7 °C | 68.5 °C | 68.6 °C | 10.9 °C | comparably high | 10 nM | 1.8 nM | 0.16 nM | 3.1 ± 1.6 nM | 2.76 nM | 5.07 nM | 1.31 nM | Total TGFβ production in the lung reduced by [3, 11]: 86%; IC50 (furin [7]; IC50 #1): 0.5 nM; IC50 (furin [7]; IC50 #2): 1 nM; IC50 (furin [7]; IC50 Mean): 0.8 nM; IC50 (furin [5]; [12]): 2 nM; IC50 (furin [5]; [13]): 2.3 nM; IC50 (furin [5]; [14]): 1.2 nM; koff (furin [8]; 25°C, single-cycle kinetic): 0.00031 s⁻¹; kon (furin [8]; 25°C, single-cycle kinetic): 96000 M⁻¹ s⁻¹; residence time (furin [8]): 53.7 min |
| CN1CCN(c2ncc(Oc3cc(CN4CCC(OCC(=O)O)C4)cc(-c4cc(Cl)cc(Cl)c4)n3)cn2)CC1 (centres unmarked) [Inhibitor 5] | 61.8 °C | 61.8 °C | 61.8 °C | 4.0 °C |  | 630 nM | 78 nM | 13 nM |  |  |  |  |  |
| CC(=O)NCC1CCN(Cc2cc(Oc3ccc(N4CCN(CCC(=O)O)CC4)nc3)nc(-c3cc(Cl)cc(Cl)c3)c2)CC1 [Inhibitor 4] | 68.3 °C | 68.2 °C | 68.3 °C | 10.5 °C | comparably high | 25.1 nM | 2.6 nM | 0.25 nM |  |  |  |  | Total TGFβ production in the lung reduced by [3, 11]: 69% |
| N=C(N)NCCC[C@@H](N)C(=O)N[C@H](CCCNC(=N)N)C(=O)N[C@H](CCCNC(=N)N)C(=O)N[C@H](CCCNC(=N)N)C(=O)N[C@H](CCCNC(=N)N)C(=O)N[C@H](CCCNC(=N)N)C(N)=O [hexa-D-arginine, reference compound] | 59.3 °C | 59.2 °C | 59.3 °C | 1.6 °C |  |  |  |  | 530 ± 320 nM | 437 nM | 966 nM | 200 nM | IC50 (furin [7]; IC50 Mean): 126 nM; IC50 (furin [9]): 106 nM; IC50 (furin [5]; IC50 #1, TGFβ substrate, replicate #1): 207 nM; IC50 (furin [5]; IC50 #2, TGFβ substrate, replicate #2): 64.2 nM; IC50 (furin [5]; IC50 #3, TGFβ substrate, replicate #3): 184 nM; IC50 (furin [5]; IC50 Mean ± SD, TGFβ-derived substrate 2.5 µM, 0.02 nM furin): 152 ± 77 nM; koff Mean ± SD (furin [8]; 25°C, single-cycle kinetic): fast off-rate |
| COCCN1CCN(c2ccc(Oc3cc(CN4CCC(CNC(C)=O)CC4)cc(-c4cc(Cl)cc(Cl)c4)n3)cn2)CC1 [Inhibitor 1] | 68.5 °C | 68.4 °C | 68.4 °C | 10.8 °C |  | 0.8 nM | 2.3 nM | 1.3 nM | 28 ± 13 nM | 48.7 nM | 24.7 nM | 26.1 nM | inhibition mode (furin [1]; Dixon plot, pERTKR-AMC 4.4-13.3 μM): competitive; Ki (furin [1]; competitive model, pERTKR-AMC 4.4, 8.9 and 13.3 µM, 0.5 nM furin): 3.8 ± 0.8 nM; IC50 (furin [7]; IC50 #1): 1 nM; IC50 (furin [7]; IC50 #2): 1.1 nM; IC50 (furin [5]; [12]): 2.6 nM; IC50 (furin [5]; [13]): 2.4 nM; IC50 (furin [5]; [14]): 2 nM; koff (furin [8]; 25°C, single-cycle kinetic): 0.00018 s⁻¹; kon (furin [8]; 25°C, single-cycle kinetic): 4600 ± 2500 M⁻¹ s⁻¹; residence time (furin [8]): 92 min; kon #1 (furin [8]; replicate #1): 4531 [Ms]-1; kon #2 (furin [8]; replicate #2): 3563 [Ms]-1; kon #3 (furin [8]; replicate #3): 8463 [Ms]-1 |
